“And” between values parts separate entries of the source, which are not always exact repeats. Equal entries are not always repeated. Toxic doses and inconclusive results are not listed.
System: P388 leukemia ip, CD2F1 mice, survival T/C
Assay: NCI In Vivo Anticancer Drug Screen. Data for tumor model P388 Leukemia (intraperitoneal) in CD2F1 (CDF1) mice
Details: endpoint: median survival time, higher = longer survival
Summary of the method: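 Mice carrying the transplanted tumor received test compound or vehicle. Survival was recorded in each group, and the value is the treated-group measurement divided by that of the vehicle-treated control group.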

[1] = dose: 25.0 mg/kg/injection, schedule: Q01DX009 (ip), vehicle: saline with Tween-80
[2] = dose: 50.0 mg/kg/injection, schedule: Q01DX009 (ip), vehicle: saline with Tween-80
[3] = dose: 100.0 mg/kg/injection, schedule: Q01DX009 (ip), vehicle: saline with Tween-80
[4] = dose: 60.0 mg/kg/injection, schedule: Q01DX005 (ip), vehicle: saline with Tween-80
[5] = dose: 120.0 mg/kg/injection, schedule: Q01DX005 (ip), vehicle: saline with Tween-80
[6] = dose: 240.0 mg/kg/injection, schedule: Q01DX005 (ip), vehicle: saline with Tween-80
[7] = dose: 100.0 mg/kg/injection, schedule: Q01DX001 (ip), vehicle: saline with Tween-80
[8] = dose: 200.0 mg/kg/injection, schedule: Q01DX001 (ip), vehicle: saline with Tween-80
[9] = dose: 400.0 mg/kg/injection, schedule: Q01DX001 (ip), vehicle: saline with Tween-80
[10] = dose: 50.0 mg/kg/injection, schedule: Q01DX009 (ip), vehicle: Klucel (hydroxypropylcellulose) (HPC)
[11] = dose: 100.0 mg/kg/injection, schedule: Q01DX009 (ip), vehicle: Klucel (hydroxypropylcellulose) (HPC)
[12] = dose: 100.0 mg/kg/injection, schedule: Q01DX005 (ip), vehicle: saline with Tween-80
[13] = dose: 200.0 mg/kg/injection, schedule: Q01DX005 (ip), vehicle: saline with Tween-80
[14] = dose: 50.0 mg/kg/injection, schedule: Q01DX005 (ip), vehicle: saline with Tween-80
[15] = dose: 60.0 mg/kg/injection, schedule: Q01DX005 (ip), vehicle: saline
[16] = dose: 120.0 mg/kg/injection, schedule: Q01DX005 (ip), vehicle: saline
[17] = dose: 240.0 mg/kg/injection, schedule: Q01DX005 (ip), vehicle: saline

## CO[C@H]1/C=C/O[C@@]2(C)Oc3c(C)c(O)c4c(O)c(c(/C=N/N5CCN(C)CC5)c(O)c4c3C2=O)NC(=O)/C(C)=C\C=C\[C@H](C)[C@H](O)[C@@H](C)[C@@H](O)[C@@H](C)[C@H](OC(C)=O)[C@@H]1C
dose: 25.0 mg/kg/injection, schedule: Q01DX009 (ip), vehicle: other
  T/C: 92 % of control
[1]
  T/C: 100 % of control
dose: 25.0 mg/kg/injection, schedule: Q04DX003 (ip), vehicle: distilled water + Tween-80
  T/C: 106 % of control
dose: 25.0 mg/kg/injection, schedule: Q04DX003 (ip), vehicle: other
  T/C: 99 % of control and 97 % of control
dose: 50.0 mg/kg/injection, schedule: Q01DX009 (ip), vehicle: other
  T/C: 98 % of control
[2]
  T/C: 100 % of control
dose: 50.0 mg/kg/injection, schedule: Q04DX003 (ip), vehicle: distilled water + Tween-80
  T/C: 105 % of control and 110 % of control
dose: 50.0 mg/kg/injection, schedule: Q04DX003 (ip), vehicle: other
  T/C: 106 % of control and 109 % of control
dose: 100.0 mg/kg/injection, schedule: Q01DX009 (ip), vehicle: other
  T/C: 89 % of control
[3]
  T/C: 100 % of control
dose: 100.0 mg/kg/injection, schedule: Q04DX003 (ip), vehicle: distilled water + Tween-80
  T/C: 96 % of control and 97 % of control
dose: 100.0 mg/kg/injection, schedule: Q04DX003 (ip), vehicle: other
  T/C: 107 % of control and 115 % of control
dose: 100.0 mg/kg/injection, schedule: Q04DX003 (ip), vehicle: saline sonified
  T/C: 95 % of control
dose: 200.0 mg/kg/injection, schedule: Q01DX009 (ip), vehicle: other
  T/C: 107 % of control
dose: 200.0 mg/kg/injection, schedule: Q04DX003 (ip), vehicle: distilled water + Tween-80
  T/C: 106 % of control
dose: 200.0 mg/kg/injection, schedule: Q04DX003 (ip), vehicle: other
  T/C: 110 % of control
dose: 200.0 mg/kg/injection, schedule: Q04DX003 (ip), vehicle: saline sonified
  T/C: 104 % of control
dose: 400.0 mg/kg/injection, schedule: Q04DX003 (ip), vehicle: distilled water + Tween-80
  T/C: 103 % of control
dose: 400.0 mg/kg/injection, schedule: Q04DX003 (ip), vehicle: saline sonified
  T/C: 109 % of control

## C=C1C(=O)SC(=NCc2ccccc2)N1C
[4]
  T/C: 96 % of control
[5]
  T/C: 90 % of control
[6]
  T/C: 91 % of control

## CC(C)(C(=O)O[Si](C)(C)C)/C(=C/[Si](C)(C)C)O[Si](C)(C)C
[7]
  T/C: 103 % of control
[8]
  T/C: 99 % of control
[9]
  T/C: 102 % of control

## O=C1CS(=O)(=O)C(c2cccc(F)c2)N1N1C(=O)CS(=O)(=O)C1c1cccc(F)c1 (centres undefined)
[4]
  T/C: 92 % of control
[5]
  T/C: 95 % of control
[6]
  T/C: 94 % of control

## CCN(CC)Cc1c(C)[nH]c2c3c(ccc2c1=O)Oc1c(ccc2c(=O)c(CN(CC)CC)c(C)[nH]c12)O3
[10]
  T/C: 96 % of control
[11]
  T/C: 93 % of control
dose: 200.0 mg/kg/injection, schedule: Q01DX009 (ip), vehicle: Klucel (hydroxypropylcellulose) (HPC)
  T/C: 96 % of control

## CSc1nc(SC)c2c(C)cn(C3OC(C)C(O)C(O)C3O)c2n1 (centres undefined)
[12]
  T/C: 94 % of control
[13]
  T/C: 93 % of control
dose: 400.0 mg/kg/injection, schedule: Q01DX005 (ip), vehicle: saline with Tween-80
  T/C: 97 % of control

## COc1ccc2nc(CC(=N)c3ccc(N(C)C)cc3)ccc2c1
[14]
  T/C: 89 % of control
[12]
  T/C: 89 % of control
[13]
  T/C: 92 % of control

## CC1(C)COC(c2cc(Br)ccc2Br)=N1
dose: 12.5 mg/kg/injection, schedule: Q01DX009 (ip), vehicle: saline with Tween-80
  T/C: 100 % of control
[1]
  T/C: 102 % of control
[2]
  T/C: 97 % of control
[3]
  T/C: 97 % of control
dose: 200.0 mg/kg/injection, schedule: Q01DX009 (ip), vehicle: saline with Tween-80
  T/C: 101 % of control

## CN(C)CCNc1ccc(NCCNCCO)c2c1C(=O)c1ccccc1C2=O
dose: 10.0 mg/kg/injection, schedule: Q04DX002 (ip), vehicle: saline
  T/C: 151 % of control
dose: 20.0 mg/kg/injection, schedule: Q04DX002 (ip), vehicle: saline
  T/C: 173 % of control
dose: 40.0 mg/kg/injection, schedule: Q04DX002 (ip), vehicle: saline
  T/C: 192 % of control
dose: 80.0 mg/kg/injection, schedule: Q04DX002 (ip), vehicle: saline
  T/C: 192 % of control

## Cc1ccc(S(=O)(=O)NC(=O)C#CCOC2CCCCO2)cc1 (centres undefined)
[14]
  T/C: 103 % of control and 122 % of control
[12]
  T/C: 111 % of control and 112 % of control
[13]
  T/C: 112 % of control and 123 % of control

## c1ccc2c(c1)nc1n2CC2(CS1)CSc1nc3ccccc3n1C2
[2]
  T/C: 88 % of control
[3]
  T/C: 91 % of control

## CC(C)[Si]1(C(C)C)N([Si](C)(C)F)[Si](C(C)C)(C(C)C)N1[Si](C)(C)F
[15]
  T/C: 97 % of control
[16]
  T/C: 87 % of control
[17]
  T/C: 100 % of control

## COc1ccc(/C=N/N2CN(C(C)C(=O)O)P(Nc3ncccn3)N=C2N)cc1OC (centres undefined)
[15]
  T/C: 104 % of control
[16]
  T/C: 103 % of control
[17]
  T/C: 108 % of control

## CCCCCCCCN(C)N=Nc1ccccc1C(=O)O
dose: 12.5 mg/kg/injection, schedule: Q01DX009 (ip), vehicle: Klucel (hydroxypropylcellulose) (HPC)
  T/C: 105 % of control
dose: 25.0 mg/kg/injection, schedule: Q01DX009 (ip), vehicle: Klucel (hydroxypropylcellulose) (HPC)
  T/C: 118 % of control
[10]
  T/C: 115 % of control
[11]
  T/C: 108 % of control

## C=C[C@@H]1C[C@@]2(C)O[C@@H]([C@@H](OCc3ccccc3)[C@@H]1OC)[C@@H](C)O2
[7]
  T/C: 96 % of control
[8]
  T/C: 104 % of control
[9]
  T/C: 104 % of control

## CCc1ccc(NS(=O)(=O)c2ccc(F)cc2)cc1
[4]
  T/C: 104 % of control
[5]
  T/C: 104 % of control
[6]
  T/C: 96 % of control

## CNC1=CC(=O)c2c(c3cc(OC(C)=O)ccc3n2C)C1=O
dose: 50.0 mg/kg/injection, schedule: Q01DX009 (ip), vehicle: saline
  T/C: 99 % of control
dose: 100.0 mg/kg/injection, schedule: Q01DX009 (ip), vehicle: saline
  T/C: 99 % of control
dose: 200.0 mg/kg/injection, schedule: Q01DX009 (ip), vehicle: saline
  T/C: 100 % of control

## CCOC(=O)c1[nH]cnc1N
dose: 15.0 mg/kg/injection, schedule: Q01DX005 (ip), vehicle: saline with Tween-80
  T/C: 104 % of control
dose: 30.0 mg/kg/injection, schedule: Q01DX005 (ip), vehicle: saline with Tween-80
  T/C: 101 % of control
[4]
  T/C: 104 % of control and 106 % of control
[5]
  T/C: 100 % of control
[6]
  T/C: 104 % of control

## Clc1ccc(-c2cn3c(n2)SCC3)cc1
dose: 100.0 mg/kg/injection, schedule: Q01DX001 (ip), vehicle: Klucel (hydroxypropylcellulose) (HPC)
  T/C: 121 % of control
dose: 100.0 mg/kg/injection, schedule: Q04DX002 (ip), vehicle: Klucel (hydroxypropylcellulose) (HPC)
  T/C: 102 % of control
dose: 200.0 mg/kg/injection, schedule: Q01DX001 (ip), vehicle: Klucel (hydroxypropylcellulose) (HPC)
  T/C: 88 % of control
dose: 200.0 mg/kg/injection, schedule: Q04DX002 (ip), vehicle: Klucel (hydroxypropylcellulose) (HPC)
  T/C: 104 % of control
dose: 400.0 mg/kg/injection, schedule: Q04DX002 (ip), vehicle: Klucel (hydroxypropylcellulose) (HPC)
  T/C: 106 % of control

## NC(=O)C1CC2(c3ccccn3)c3ccccc3C1c1ccccc12 (centres undefined)
dose: 50.0 mg/kg/injection, schedule: Q01DX005 (ip), vehicle: Klucel (hydroxypropylcellulose) (HPC)
  T/C: 96 % of control
dose: 100.0 mg/kg/injection, schedule: Q01DX005 (ip), vehicle: Klucel (hydroxypropylcellulose) (HPC)
  T/C: 90 % of control
dose: 200.0 mg/kg/injection, schedule: Q01DX005 (ip), vehicle: Klucel (hydroxypropylcellulose) (HPC)
  T/C: 88 % of control

## O=C(Nc1ccccc1C(F)(F)F)c1cccc(Cl)c1
dose: 100.0 mg/kg/injection, schedule: Q04DX003 (ip), vehicle: saline + alcohol
  T/C: 109 % of control
dose: 200.0 mg/kg/injection, schedule: Q04DX003 (ip), vehicle: saline + alcohol
  T/C: 100 % of control
dose: 400.0 mg/kg/injection, schedule: Q04DX003 (ip), vehicle: saline + alcohol
  T/C: 100 % of control

## CCOC1(OCC)CC(c2ccccc2)c2cnn(-c3ccccc3)c2O1 (centres undefined)
dose: 60.0 mg/kg/injection, schedule: Q01DX005 (ip), vehicle: Klucel (hydroxypropylcellulose) (HPC)
  T/C: 92 % of control
dose: 120.0 mg/kg/injection, schedule: Q01DX005 (ip), vehicle: Klucel (hydroxypropylcellulose) (HPC)
  T/C: 93 % of control
dose: 240.0 mg/kg/injection, schedule: Q01DX005 (ip), vehicle: Klucel (hydroxypropylcellulose) (HPC)
  T/C: 87 % of control
